Test results reported in US20100008965A1, “BIOCOMPATIBLE MEDICAL PRODUCTS HAVING ENHANCED ANTI-THROMBOGENIC PROPERTIES” (priority 2008, published 2010).

Columns and labels:
human platelets = assay: 51Cr-labeled platelet adhesion to immobilized ECM proteins under shear flow; type: cell-based; conditions: 16.5 dyne/cm^2, one hour; non-activated and thrombin-activated; versus CS-1 and glass control
Procedure: Characterization of human platelet adhesion to immobilized extracellular matrix proteins was performed by subjecting non-activated or thrombin-activated human platelets to a shear stress τ=16.5 dyne/cm^2 for one hour using a peristaltic pump-driven parallel plate fluid flow system. Washed human platelets were isolated as described above, resuspended in platelet washing buffer (PWB), and adjusted to a final concentration of approximately 0.5-1.0×10^9 platelets/ml. The platelet suspensions were incubated for thirty minutes at room temperature with 25 μCi/ml Na2^51CrO4 (GE Healthcare, Piscataway, N.J.). ^51Cr-labeled platelets were centrifuged at 2000×g for three minutes at room temperature and resuspended in 20 ml fresh frozen plasma previously thawed and warmed to 37° C. The ^51Cr-platelet/plasma solution was distributed equally (5 ml) into each of four reservoirs containing an additional 50 ml of 37° C. human plasma. For thrombin-activated platelets, 1 U thrombin (Sigma) per 3 ml platelet suspension was added immediately prior to aliquoting the ^51Cr-platelet/plasma solution into the flow loop reservoirs.
75×38×1 mm glass microscope slides were coated with ECM proteins as described above. Slides were incubated for one hour at room temperature with a 0.25% (w/v) sterile-filtered BSA solution. […]

HUVEC [1] = assay: HUVEC retention under unidirectional fluid flow; type: cell-based, human; conditions: 15 dyne/cm^2, thirty minutes; CS-1 p=0.1, fibronectin p=0.07
Procedure: In addition to the above, 75×38×1 mm glass microscope slides (Fisher Scientific Research, Pittsburgh, Pa.) were sterilized and coated overnight with human plasma fibronectin or CS-1 peptide at 5 μg/cm^2, or with PBS only. Slides were incubated for one hour at room temperature with a 0.01% (w/v) sterile-filtered BSA solution. HCAEC or HUVEC were seeded in basal medium on slides at 1.85×10^4 cells/cm^2 and permitted to adhere for eight hours under static conditions at 37° C. Fluid flow was performed using parallel plate flow chambers connected to fluid flow loops, as described in Pavalko et al., Fluid shear stress inhibits TNF-alpha-induced apoptosis in osteoblasts: a role for fluid shear stress-induced activation of PI3-kinase and inhibition of caspase-3. J Cell Phys 194, 194, 2002. Briefly, endothelial cell-seeded slides were secured within flow chambers and connected to fluid flow loops. All flows were performed in a 37° C. environment with serum-free culture medium that was continually bathed in a 5% CO2 atmosphere. […] Fluorescence micrographs were captured as described above. […] Nuclei were counted from five equally distributed visual fields per slide and pooled together for each substrate condition. Data was calculated as percent (%) cell retention, where % retention=[(average nuclei count)flow÷(average nuclei count)static]×100.

HUVEC [2] = assay: HUVEC spreading on coated glass slides, static; type: cell-based, human; conditions: 5 μg/cm^2 coating, two hours, p<0.01
Procedure: 22×25×1 mm glass slides (Electron Microscopy Sciences, Hatfield, Pa.) were washed sequentially in 100% acetone, ethanol and HCl (2:1), and deionized and Milli-Q H2O, followed by autoclave sterilization. Slides were coated with one of the following PBS-solubilized extracellular matrix proteins at 5 μg/cm^2: (a) human type I collagen (Sigma), (b) human plasma fibronectin (Chemicon), or (c) CS-1 peptide (American Peptide Company). All coated slides were dried overnight at room temperature, rinsed with PBS, and blocked with a 0.01% (w/v) heat-inactivated BSA-solution at room temperature for one hour. HCAEC or HUVEC were seeded onto the slides in basal medium at 1×10^4 cells/cm^2 and permitted to attach and spread for two hours at 37° C. Cells were fixed with 4% (w/v) paraformaldehyde and co-stained for fluorescence microscopic analysis using Texas Red®-X phalloidin (Molecular Probes, Eugene, Oreg.) and DAPI (EMB Chemicals, Inc., San Diego, Calif.). Fluorescence micrographs were captured through a 10× objective on a Nikon Diaphot 200 inverted epifluorescence microscope (Nikon, Inc., Melville, N.Y.) using an Olympus DP70 digital camera (Olympus America, Inc., Melville, N.Y.). Image Tool software package version 3.0 (University of Texas Health Science Center, San Antonio, Tex.) was used to quantify endothelial cell surface area.

HCAEC = assay: alpha-4 integrin function blocking cell binding assay, HCAEC; type: cell-based, human; conditions: 0.5 μg antibody per 5×10^4 cells, 8 h; CS-1 p<0.05
Procedure: To verify that HCAEC or HUVEC adhesion to immobilized CS-1 polypeptides is specifically mediated via alpha-4-containing integrin heterodimers, alpha-4 integrin function blocking cell binding assays were performed. RGDS, EILEVPST, and CS-1 polypeptides were immobilized in Immobilizer™ Amino 96-well microplates. Microplate wells were prepared as described above. Trypsinized HCAEC or HUVEC suspensions were manually counted, aliquoted into two groups, and incubated for one hour on ice with one of the following antibodies at a concentration of 0.5 μg antibody per 5×10^4 cells: (a) mouse monoclonal IgG1 anti-human alpha-4-integrin (CD49d, clone P1H4) (Chemicon), or (b) mouse monoclonal IgG1 anti-human isotype-matched control (R&D Systems). Next, 5×10^4 cells suspended in their respective basal medium were added to wells containing immobilized peptide polypeptides and incubated for eight hours at 37° C. and a 5% CO2 atmosphere. Adherent cells were analyzed via crystal violet staining as described previously.
To differentiate whether HCAEC and HUVEC adhere to CS-1 peptides via an alpha-4 integrin-specific interaction, HCAEC and HUVEC adhesion assays to CS-1, RGDS, and EILEVPST peptides were performed following one hour endothelial cell incubations with either an alpha-4 integrin function blocking antibody or an IgG isotype-matched control antibody. The EILEVPST peptide served as the negative control cell adhesion peptide. The RGDS peptide served as an additional control. Endothelial cell adhesion to RGDS is primarily mediated by alpha-5-beta-1 integrins. Therefore, alpha-4 integrin function blocking should not have a significant effect on adhesion to RGDS. Thus, specificity of HCAEC and HUVEC binding to CS-1 via alpha-4 integrins could be tested.

CS-1: full-length 25 amino acid polypeptide, first 25 amino acid sequence of the fibronectin type IIICS domain (DELPQLVTLPHPNLHGPEILDVPST; Homo sapien)
flowed platelet binding (51Cr), both states of activation (human platelets): lack of significant upregulation in platelet binding
HUVEC percent retention versus control substrate (HUVEC [1]): not statistically distinguishable from the control substrate
HUVEC spread area relative to the non-ECM-coated control substrate (HUVEC [2]): statistically significant increase
difference in HCAEC adhesion between IgG isotype control and alpha-4 integrin blocking antibody treated cells (HCAEC): A statistical difference was achieved
